# Data taken from US20240384268A1, “Oligonucleotides” (Hudson Institute of Medical Research, priority 2021, published 2024).
# In the oligonucleotide strings, read from the 5' end, every base follows the letter of its sugar. An asterisk marks phosphorothioate; unmarked linkages are phosphodiester. Other units and linkages are bracketed, terminal groups are in braces. A string of capitals states the bases alone. d = 2'-deoxy (DNA); m = 2'-O-methyl
# Target: T1, TLR8 (Homo sapiens, UniProt Q9NR97)
# T1 sequence (Q9NR97 27-1041): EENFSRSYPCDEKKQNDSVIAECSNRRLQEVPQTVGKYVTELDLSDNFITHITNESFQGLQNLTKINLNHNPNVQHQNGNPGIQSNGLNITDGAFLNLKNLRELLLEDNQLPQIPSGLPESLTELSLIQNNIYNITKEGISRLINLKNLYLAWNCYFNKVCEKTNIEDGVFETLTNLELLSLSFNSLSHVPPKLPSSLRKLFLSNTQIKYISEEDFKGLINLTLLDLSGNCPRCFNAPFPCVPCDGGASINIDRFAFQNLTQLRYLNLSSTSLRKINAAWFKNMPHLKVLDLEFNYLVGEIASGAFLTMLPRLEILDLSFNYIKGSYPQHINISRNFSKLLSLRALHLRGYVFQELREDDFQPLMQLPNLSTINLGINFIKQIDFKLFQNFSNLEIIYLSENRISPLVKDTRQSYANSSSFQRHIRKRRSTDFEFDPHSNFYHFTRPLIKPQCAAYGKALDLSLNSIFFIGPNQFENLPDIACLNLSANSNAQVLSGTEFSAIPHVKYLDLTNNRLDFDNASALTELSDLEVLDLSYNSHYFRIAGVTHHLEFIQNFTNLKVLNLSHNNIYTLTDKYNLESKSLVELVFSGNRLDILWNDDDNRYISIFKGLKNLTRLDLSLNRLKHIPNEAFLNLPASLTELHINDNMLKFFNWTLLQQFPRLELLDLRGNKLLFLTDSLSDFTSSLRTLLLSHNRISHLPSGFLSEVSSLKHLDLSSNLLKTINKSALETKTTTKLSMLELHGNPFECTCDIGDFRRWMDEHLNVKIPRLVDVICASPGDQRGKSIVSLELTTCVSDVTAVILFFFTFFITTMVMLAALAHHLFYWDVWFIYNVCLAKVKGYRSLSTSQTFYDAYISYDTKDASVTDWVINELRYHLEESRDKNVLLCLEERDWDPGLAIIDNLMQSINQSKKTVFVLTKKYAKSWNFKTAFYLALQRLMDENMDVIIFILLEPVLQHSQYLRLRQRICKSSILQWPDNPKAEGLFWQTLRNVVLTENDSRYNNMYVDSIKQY
# Assay: HEK-TLR8 NF-κB-luciferase reporter, R848 or Motolimod stimulation (potentiation or inhibition)
# Format: cell-based
# Parameters: expressed in transfected cells; host or cells: 293XLhTLR8 (HEK293)
# Conditions: for TLR8 100 nM: MOE-modified ASO at 100 nM; for TLR8 100 nM / TLR8 500 nM: averaged NF-κB-Luciferase relative to R848 condition (fold increase); for TLR8 500 nM: MOE-modified ASO at 500 nM; for TLR8-500 nM: averaged NF-κB-Luciferase relative to R848: HEK-TLR8, 500 nM ASO, fold increase relative to R848 without ASO (Alharbi et al., 2020)
Substance,TLR8 100 nM,TLR8 500 nM,TLR8-500 nM: averaged NF-κB-Luciferase relative to R848 [fold]
"ATGCCATCCACTTGATAGGC (antisense; 2'-MOE modified, pattern not given here) [EGFR-2874 MOE]",2.028,2.025,–
"mU*mU*mA*mA*mA*T*A*A*T*C*T*A*G*T*T*mU*mG*mA*mA*mG (UUAAATAATCTAGTTUGAAG; sugars from the 5' end m5 d10 m5, all phosphorothioate, methylation of C not given here) [[CDKN2B-AS1]132]",–,–,6.43
mG*mA*mU*mU*mA*A*A*A*C*A*G*A*T*T*A*mA*mU*mA*mC*mA (mG*mA*mU*mU*mA*dA*dA*dA*dC*dA*dG*dA*dT*dT*dA*mA*mU*mA*mC*mA) [[CDKN2B-AS1]1773],–,–,1.48
mA*mA*mG*mG*mU*G*G*C*C*A*C*A*G*G*C*mA*mA*mC*mG*mU (mA*mA*mG*mG*mU*dG*dG*dC*dC*dA*dC*dA*dG*dG*dC*mA*mA*mC*mG*mU; antisense) [[CDKN2B-AS1]2198],–,–,0.78
"GGGTATCGAAAGAGTCTGGA (antisense; 2'-MOE modified, pattern not given here) [EGFR-3908 MOE]",3.138,4.073,–
"TGGCAGGCTCAGTGATGTCT (antisense; 2'-MOE modified, pattern not given here) [CTNN2B-1642 MOE]",1.074,0.973,–
"mA*mA*mA*mA*mG*A*T*T*A*T*C*T*T*C*T*mU*mU*mU*mA*mA (AAAAGATTATCTTCTUUUAA; sugars from the 5' end m5 d10 m5, all phosphorothioate, methylation of C not given here) [[CDKN2B-AS1]2133]",–,–,4.68
"TTTGCACACTTCGTACCCAA (antisense; 2'-MOE modified, pattern not given here) [CAMSAP1-4916 MOE]",1.877,2.199,–
mU*mG*mA*mC*mA*T*T*T*C*G*T*G*G*C*T*mC*mC*mU*mA*mC (mU*mG*mA*mC*mA*dT*dT*dT*dC*dG*dT*dG*dG*dC*dT*mC*mC*mU*mA*mC; antisense) [[LINC-PINT]523 KL],–,–,4.34
mA*mA*mA*mG*mA*T*T*A*T*C*T*T*C*T*T*mU*mU*mA*mA*mU (mA*mA*mA*mG*mA*dT*dT*dA*dT*dC*dT*dT*dC*dT*dT*mU*mU*mA*mA*mU) [[CDKN2B-AS1]2132],–,–,5.04
mC*mC*mC*mU*mA*A*T*G*C*T*T*T*C*C*T*mC*mU*mC*mC*mA (mC*mC*mC*mU*mA*dA*dT*dG*dC*dT*dT*dT*dC*dC*dT*mC*mU*mC*mC*mA; antisense) [[LINC-PINT1877 KL],–,–,8.39
mU*mU*mA*mG*mC*T*C*C*T*T*G*C*C*T*C*mG*mU*mU*mC*mC (mU*mU*mA*mG*mC*dT*dC*dC*dT*dT*dG*dC*dC*dT*dC*mG*mU*mU*mC*mC; antisense) [[LINC-PINT] 1222],–,–,8.41
"TCCGGCCTCGGAAGCTCTCT (antisense; 2'-MOE modified, pattern not given here) [MB21D1-168 MOE]",0.816,0.781,–
"mG*mG*mA*mU*mU*A*A*A*A*C*A*G*A*T*T*mA*mA*mU*mA*mC (GGAUUAAAACAGATTAAUAC; sugars from the 5' end m5 d10 m5, all phosphorothioate, methylation of C not given here) [[CDKN2B-AS1]1774]",–,–,1.67
mC*mA*mU*mC*mC*C*T*T*C*T*G*C*T*G*C*mC*mA*mA*mG*mC (mC*mA*mU*mC*mC*dC*dT*dT*dC*dT*dG*dC*dT*dG*dC*mC*mA*mA*mG*mC; antisense) [[LINC-PINT]98],–,–,8.23
"CGGCATCCACCACGTCGTCC (antisense; 2'-MOE modified, pattern not given here) [EGFR-3267 MOE]",1.249,0.903,–
mU*mG*mG*mC*mG*T*A*G*T*T*T*C*T*C*T*mU*mC*mC*mU*mC (mU*mG*mG*mC*mG*dT*dA*dG*dT*dT*dT*dC*dT*dC*dT*mU*mC*mC*mU*mC; antisense) [[LINC-PINT]937.1],–,–,4.25
mC*mC*mU*mU*mC*T*C*T*C*T*G*GT*C*C*mC*mA*mU*mC*mC (CCUUCTCTCTGGTCCCAUCC; antisense; chemistry not fully specified) [[LINC-PINT]113],–,–,3.51
mG*mU*mC*mU*mC*C*T*C*C*A*C*A*C*C*C*mU*mU*mC*mU*mC (mG*mU*mC*mU*mC*dC*dT*dC*dC*dA*dC*dA*dC*dC*dC*mU*mU*mC*mU*mC; antisense) [[LINC-PINT]126],–,–,7.17
mC*mU*mU*mU*mA*T*A*T*T*A*C*A*A*A*G*mC*mU*mA*mC*mU (mC*mU*mU*mU*mA*dT*dA*dT*dT*dA*dC*dA*dA*dA*dG*mC*mU*mA*mC*mU; antisense) [[LINC-PINT]2755],–,–,6.37
mA*mA*mA*mU*mG*T*C*C*T*G*G*C*C*C*T*mC*mA*mC*mU*mG (mA*mA*mA*mU*mG*dT*dC*dC*dT*dG*dG*dC*dC*dC*dT*mC*mA*mC*mU*mG) [[LINC-PINT]148.1],–,–,1.56
mA*mU*mG*mA*mC*A*T*T*T*C*G*T*G*G*C*mU*mC*mC*mU*mA (mA*mU*mG*mA*mC*dA*dT*dT*dT*dC*dG*dT*dG*dG*dC*mU*mC*mC*mU*mA) [[LINC-PINT]524.1],–,–,1.20
